Measurements: patent US20260199284A1, “SPECIFIC VASH COMPOUNDS (SVC) INHIBITORS FOR HEART DISEASES” (MT ACT, priority 2023, published 2026)
“Also recorded” adds a separate entry of the source.

Tests used:
[1] = test system: human adult cardiomyocytes; assay: mRNA expression of detyrosination-tyrosination cycle genes in human adult cardiomyocytes; type: cell-based; conditions: vs vehicle
Method: FIG. 34: human adult cardiomyocytes are treated with vehicle or SVC-01 and collected for analysis of mRNA expression of genes involved in the detyrosination-tyrosination cycle.
Specificity of SVC-01 was assayed using both human VASH1 and VASH2 recombinant enzymes. […] Finally, to ensure that regulation of other genes involved in the detyrosination-tyrosination cycle is not affected, we analysed gene expression of all relevant and associated genes following treatment with SVC-02 in adult human cardiomyocytes. We found no alteration of VASH1, VASH2, MATCAP, TTL or SVBP gene expression between vehicle control and SVC-02 treated cells (FIG. 34).

[2] = test system: primary cardiomyocytes isolated from ZSF1-Lean or ZSF1 Obese rats; assay: Nanoindentation transverse stiffness; type: cell-based, rat
Text: FIG. 17: Reduced transverse stiffness upon VASH inhibition or TTL overexpression in primary cardiomyocytes isolated from ZSF1-Lean or ZSF1 Obese rats. A) Stiffness (elastic modulus) plotted as a function of nanoindentation velocity in ZSF1-Lean and B) ZSF1-Obese myocytes. C) Quantification of Emin (elastic stiffness), Emax (stiffness at maximal velocity of indentation) and D) DeltaE (indicator of viscoelasticity) in ZSF1-Lean and Obese cardiomyocytes.
Mechanical properties at the microscopic scale were measured using nano-indentation (Piuma; Optics11, Amsterdam, The Netherlands) equipped with a dynamic mechanical analysis package (DMA). Freshly isolated cardiomyocytes were attached to glass-bottom dishes coated with MyoTak (IonOptix) in NT solution at 1 mM Ca2+. A spherical indentation probe with a radius of 4.5 μm and a stiffness of 0.1 N/m was used to indent the myocytes to a depth of 1-2 μm and the probe was then oscillated in a sinusoidal pattern at a frequency of 0.05, 0.1, 0.5, 1, 2, 5, 10, 20 and 50 Hz and an amplitude of 1 μm. The Piuma Data Viewer version 2.0 was used to convert DMA indentation depth and cantilever deflection into E′ and E″ and the magnitude of the elastic modulus was determined by E^2=E′^2+E″^2 A Poisson's ratio (n) of 0.5 was assumed and the average of E in each experimental condition was determined as a function of indentation speed. […]

[3] = molecular target: recombinant human VASH1 (hVASH1) and SVBP complex (Homo sapiens, UniProt Q7L8A9); assay: In vitro detyrosination assay (ELISA-based) with recombinant human VASH1/SVBP; type: biochemical; conditions: for inhibition of detyrosinase activity of recombinant human VASH1: recombinant enzyme, dose-response
Method: FIG. 3: In vitro detyrosination assays using recombinant human VASH1 (hVASH1) and SVBP complex. ELISA-based method to measure detyrosinase activity. Dose-response allows for accurate determination of the inhibition of the compounds on the target.
We undertook an extensive analysis of the human proteome and sought to identify human proteins that encoded a -EEY sequence at the very C-terminal. […] Following 2 hours exposure of the human cells to the SVC_01 compound, we fixed and analysed by specific immunofluorescence the labelling of detyrosinated tubulin but also that of another posttranslational modification termed acetylation (FIG. 4).

[4] = test system: tubulin detyrosination in human cells; assay: Immunofluorescent (high content screening) detection of tubulin detyrosination in human cells; type: cell-based
Method: FIG. 4: Immuofluorescent staining of wild type human cells and VASH double knock-outs.
FIG. 5: Immunofluorescent method to detect levels of tubulin detyrosination in human cells. Dose dependent reduction of tubulin detyrosination in human cells is observed after 2 hours treatment with all SVCs. In cellulo IC50 measure for SVC_03=10 nM.
FIG. 30: Immunofluorescent method to detect levels of tubulin detyrosination in human cells. Dose dependent reduction of tubulin detyrosination in human cells is observed after 2 hours treatment with all SVCs.
Since to date no small molecule has been designed to inhibit the enzyme VASH that is responsible for tubulin detyrosination, we engineered various compounds based on the natural substrate of the enzyme. We undertook an extensive analysis of the human proteome and sought to identify human proteins that encoded a -EEY sequence at the very C-terminal. Only 3 proteins matched the criteria including alpha-tubulin. Therefore, we developed 5 compounds that all share a tyrosine in the structure that is essential for the specificity (FIG. 2). […] Using computer-aided drug discovery and iterative cycles of medicinal chemistry work-up followed by ELISA (in vitro) and HCS (in cellulo) testing, we gathered a SAR database containing new chemical entities. The potency and selectivity of these compound is considered within pharmaceutical standards for further development. […] Next, using a human cell-line we assayed the activity of the compound SVC_01 in a cellular system that further gives indication on penetration and cellular efficacy. Following 2 hours exposure of the human cells to the SVC_01 compound, we fixed and analysed by specific immunofluorescence the labelling of detyrosinated tubulin but also that of another posttranslational modification termed acetylation (FIG. 4). […] Although specific, SVC_01 was used at micromolar concentration to obtain full inhibition. With the objective to improve cellular IC50 of our SVCs, we designed compounds that have better cell penetration specifications.

Swiss mice = assay: Organ histology (Hematoxylin and Eosin) after systemic treatment; type: in vivo, mouse
Text: To further ascertain the safety profile of the compounds in an animal model, we administered SVC-02 to Swiss mice and analysed by immunohistological description different organ structures including kidney, heart and lung.

[5] = 2 hours exposure, immunofluorescence

Sequence of recombinant human VASH1 (hVASH1) and SVBP complex (Q7L8A9 whole entry): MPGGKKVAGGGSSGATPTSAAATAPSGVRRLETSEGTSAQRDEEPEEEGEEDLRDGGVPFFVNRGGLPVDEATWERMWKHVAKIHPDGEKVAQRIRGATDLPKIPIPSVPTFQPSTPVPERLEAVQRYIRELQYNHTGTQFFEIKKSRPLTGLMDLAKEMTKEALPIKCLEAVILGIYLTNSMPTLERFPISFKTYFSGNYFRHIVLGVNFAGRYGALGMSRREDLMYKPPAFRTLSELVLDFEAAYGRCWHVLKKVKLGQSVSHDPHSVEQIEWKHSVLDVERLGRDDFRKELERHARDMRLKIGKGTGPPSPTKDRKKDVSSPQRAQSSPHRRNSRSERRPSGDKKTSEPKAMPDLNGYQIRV
Sequence of recombinant human VASH1 (hVASH1) and SVBP complex (Q8N300 whole entry partner): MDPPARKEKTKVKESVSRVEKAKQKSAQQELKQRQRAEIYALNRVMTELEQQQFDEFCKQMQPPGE

Q: What does the source list for `O=C(O)CCC[C@H](NC(=O)[C@H]1O[C@@H]1C(=O)C[C@@H](Cc1ccc(OCc2ccccc2)cc1)C(=O)O)C(=O)NCCc1ccccc1` [SVC_01]?
A: expression of VASH1, VASH2, MATCAP, TTL or SVBP genes [1]: did not alter expression; transverse viscoelastic stiffness [2]: viscoelastic stiffness is reduced; better inhibition compared to Epo-Y [3]: about 100 ×; inhibition of detyrosinase activity of recombinant human VASH1 [3]: efficiently inhibited; also recorded: efficient in inhibiting; level of acetylated tubulin in human cells [4, 5]: remain unaffected; also recorded: without affecting the level of acetylation; level of tubulin detyrosination in human cells [4, 5]: background signal comparable to that observed in VASH 2KO cells; also recorded: completely reduced the level of tubulin detyrosination

Q: Which results are given for `CCOC(=O)[C@H](Cc1ccc(OCC)cc1)NC(=O)[C@H]1O[C@@H]1C(=O)N[C@@H](Cc1ccc(OCC)cc1)C(=O)OCC` [SVC_02]?
A: expression of VASH1, VASH2, MATCAP, TTL or SVBP genes [1]: no alteration; organ structure (kidney, heart and lung) histology (Swiss mice): normal appearance of different organs; also recorded: did not alter organ structure; inhibition of detyrosinase activity of recombinant human VASH1 [3]: inactive in its prodrug form; also recorded: inactive toward the therapeutic target; IC50 on human cells ([4]; human cells): low nanomolar
